Assay results taken from the supplement of paper PMC13386468.

Columns and labels:
Conditions in all cases: assay detail: Kinobeads competition in P. falciparum blood-stage lysate
UniProt Q8IBM9 = experiment: IC50 for competition of protein binding to Kinobeads
UniProt Q5MYR6 = experiment: as above
UniProt Q8I2U5 = experiment: as above
UniProt Q8IEK3 = experiment: as above
UniProt Q8IJZ3 = experiment: as above
UniProt Q6LFH8 = experiment: as above
UniProt Q8IJ99 = experiment: as above
A0A143ZZT8 = experiment: as above
UniProt Q8IE82 = experiment: as above
UniProt Q8IC06 = experiment: as above
UniProt Q8IJX8 = experiment: as above
UniProt Q8II73 = experiment: as above
UniProt Q8ILE8 = experiment: as above
UniProt O96271 = experiment: as above
UniProt Q8I3I5 = experiment: as above
UniProt O97282 = experiment: as above
UniProt Q8I0W9 = experiment: as above
UniProt Q8IFP2 = experiment: as above
UniProt Q8IHN4 = experiment: as above
UniProt Q8I5B2 = experiment: as above
UniProt C6KTE1 = experiment: as above
UniProt Q8IBK8 = experiment: as above
UniProt Q8IBA0 = experiment: as above
UniProt C6KT76 = experiment: as above
UniProt Q7K6A4 = experiment: as above
UniProt Q7K6A0 = experiment: as above
UniProt C6KSV3 = experiment: as above
UniProt Q8IAX5 = experiment: as above
UniProt Q8IJZ9 = experiment: as above
UniProt Q8I272 = experiment: as above
UniProt Q8IIF0 = experiment: as above
UniProt Q8I510 = experiment: as above
UniProt O77344 = experiment: apparent dissociation constant (Kd app) from Kinobeads competition
UniProt Q8I535 = experiment: as above
A0A144A0U7 = experiment: as above
UniProt Q8I5D4 = experiment: as above
UniProt C6KSZ6 = experiment: as above
UniProt Q8IKQ9 = experiment: as above
UniProt Q8IEL1 = experiment: as above
UniProt Q8I442 = experiment: as above
UniProt Q8IIW6 = experiment: as above
UniProt Q8IAZ3 = experiment: as above
UniProt Q9U0K8 = experiment: as above
UniProt Q8IE41 = experiment: as above
UniProt Q7KQK0 = experiment: as above
UniProt Q8I5H9 = experiment: as above
UniProt Q8IJR8 = experiment: as above
UniProt Q8IAM4 = experiment: as above
UniProt C0H4R8 = experiment: as above
UniProt C6KSQ1 = experiment: as above
UniProt Q8I5E3 = experiment: as above
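Throughout, for IC50: native unpurified kinases from lysate captured on beads bearing immobilized kinase inhibitors, with bead-bound kinases quantified by mass spectrometry across compound doses.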

UniProt Q6LFH8, sequence (Q6LFH8 whole entry): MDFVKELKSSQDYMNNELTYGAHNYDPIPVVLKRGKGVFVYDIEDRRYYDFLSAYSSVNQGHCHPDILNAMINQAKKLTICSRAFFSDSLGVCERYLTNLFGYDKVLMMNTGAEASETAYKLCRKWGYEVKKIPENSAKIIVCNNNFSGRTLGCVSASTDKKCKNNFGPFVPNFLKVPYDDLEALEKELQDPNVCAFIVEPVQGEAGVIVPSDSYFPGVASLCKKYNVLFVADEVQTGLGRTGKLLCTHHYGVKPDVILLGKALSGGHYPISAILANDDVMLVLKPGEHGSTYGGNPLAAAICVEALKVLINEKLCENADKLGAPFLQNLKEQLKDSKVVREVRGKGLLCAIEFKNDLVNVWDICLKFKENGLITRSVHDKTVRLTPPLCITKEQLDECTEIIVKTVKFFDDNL
UniProt Q8IJX8, sequence (Q8IJX8 whole entry): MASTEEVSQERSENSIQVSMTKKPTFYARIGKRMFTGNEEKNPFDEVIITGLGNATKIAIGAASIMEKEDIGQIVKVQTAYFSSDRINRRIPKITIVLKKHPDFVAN

O=c1[nH]c2ccc(Cl)cc2c(NC2CN3CCC2CC3)c1-c1nc2ccccc2[nH]1 (stereo unspecified) [CHIR-124]
IC50 (UniProt Q8IBM9): > 20 µM | IC50 (UniProt Q5MYR6): > 20 µM | IC50 (UniProt Q8I2U5): > 20 µM | IC50 (UniProt Q8IEK3): > 20 µM | IC50 (UniProt Q8IJZ3): > 20 µM | IC50 (UniProt Q6LFH8): > 20 µM | IC50 (UniProt Q8IJ99): > 20 µM | IC50 (A0A143ZZT8): > 20 µM | IC50 (UniProt Q8IE82): > 20 µM | IC50 (UniProt Q8IC06): > 20 µM | IC50 (UniProt Q8IJX8): > 20 µM | IC50 (UniProt Q8II73): > 20 µM | IC50 (UniProt Q8ILE8): > 20 µM | IC50 (UniProt O96271): > 20 µM | IC50 (UniProt Q8I3I5): > 20 µM | IC50 (UniProt O97282): > 20 µM | IC50 (UniProt Q8I0W9): > 20 µM | IC50 (UniProt Q8IFP2): > 20 µM | IC50 (UniProt Q8IHN4): > 20 µM | IC50 (UniProt Q8I5B2): > 20 µM | IC50 (UniProt C6KTE1): > 20 µM | IC50 (UniProt Q8IBK8): > 20 µM | IC50 (UniProt Q8IBA0): > 20 µM | IC50 (UniProt C6KT76): > 20 µM | IC50 (UniProt Q7K6A4): > 20 µM | IC50 (UniProt Q7K6A0): 0.865 µM | IC50 (UniProt C6KSV3): > 20 µM | IC50 (UniProt Q8IAX5): > 20 µM | IC50 (UniProt Q8IJZ9): > 20 µM | IC50 (UniProt Q8I272): > 20 µM | IC50 (UniProt Q8IIF0): > 20 µM | IC50 (UniProt Q8I510): > 20 µM | Kd (UniProt O77344): 1.28 µM | Kd (UniProt Q8I535): 0.0455 µM | Kd (A0A144A0U7): 7.53 µM | Kd (UniProt Q8I5D4): 5.65 µM | Kd (UniProt C6KSZ6): 1.4 µM | Kd (UniProt Q8IKQ9): 15.3 µM | Kd (UniProt Q8IEL1): 1.9 µM | Kd (UniProt Q8I442): 7.1 µM | Kd (UniProt Q8IIW6): 0.181 µM | Kd (UniProt Q8IAZ3): 9.02 µM | Kd (UniProt Q9U0K8): 4.29 µM | Kd (UniProt Q8IE41): 0.239 µM | Kd (UniProt Q7KQK0): 0.621 µM | Kd (UniProt Q8I5H9): 10.3 µM | Kd (UniProt Q8IJR8): 0.314 µM | Kd (UniProt Q8IAM4): 7.66 µM | Kd (UniProt C0H4R8): 4.84 µM | Kd (UniProt C6KSQ1): 0.168 µM | Kd (UniProt Q8I5E3): 7.57 µM
